Measured values: patent US4818770A, “Prevention of a plant disease by specific inhibition of fungal polyamine biosynthesis” (priority 1986, dated 1989)
“And” between values parts separate entries of the source, which are not always exact repeats. Identical values can stand only once. “Also recorded” adds a separate entry of the source. Like-named read-outs stand apart in the source and are kept apart here.

Key:
[1] = test system: P. graminis f. sp. tritici; assay type: in vivo, Puccinia graminis f. sp. tritici
[2] = test system: Verticillium dahliae; experiment: Verticillium wilt symptoms in Bonny Best tomato after foliar spray; assay type: in vivo
[3] = test system: PA titers of bean leaves; experiment: Polyamine titers in leaves of sprayed bean plants; assay type: in vivo, Phaseolus vulgaris
Procedure: PA analysis was performed on leaf samples collected from inhibitor-sprayed bean plants. Leaf samples were ground in prechilled mortars with 10% (w/v) HClO4 at a ratio of 200 mg fresh weight leaf per ml HClO4. Homogenates were centrifuged at 26,00 g for 20 minutes at 4° C. The clear supernatant fractions were used for dansylation according to a procedure previously described. Briefly, 0.4 ml of freshly prepared dansyl (Diaminonaphthylsulfonyl)-C1 (Sigma), 5 mg/ml in acetone, and 0.2 ml of saturated Na2 CO3 were added to 0.2 ml of the supernatant fraction. The dansylated PA were extracted with 0.25 ml benzene and the clear benzene layer was used for PA determinations by TLC on LK6D high resolution silica gel plates (Whatman). After development in chloroform:triethylamine (25:2 v/v) for about 1 hour and location by fluorescence under a UV lamp, the dansylpolyamine bands were scraped off, eluted in 4 ml of ethyl acetate and quantified with an Aminco-Bowman fluorimeter.
The effect of DFMO and DFMA sprays (0.01, 0.1, and 1.0 mM) on PA titers was also examined. Unifoliolate leaves were sprayed in the usual way and examined 1 and 3 days later, while the first trifolioloate leaves, unexpanded ata the time of spray and themselves unsprayed, were examined 8 days later.

[4] = test system: Puccinia graminis fsp avenae; assay type: in vivo
[5] = test system: Uromyces phaseoli; experiment: Bean rust lesions on unifoliolate leaves of Pinto bean sprayed before or after inoculation; assay type: in vivo
[6] = test system: bean rust uredospores; experiment: Germination and differentiation of bean rust uredospores in agar; assay type: cell-based, Uromyces phaseoli; conditions: for inhibition at 100 µM / inhibition at 500 µM / inhibition at 1000 µM / inhibition at 5000 µM: Uromyces phaseoli
[7] = test system: P. recondita f. sp. tritici; assay type: in vivo, Puccinia recondita f. sp. tritici
[8] = test system: Verticillium dahliae; experiment: Radial mycelial growth of Verticillium dahliae in vitro; assay type: cell-based; conditions: for minimal effective concentration: Verticillium dahliae, in vitro
[9] = test system: Colletotrichum lagenarium; experiment: Infection of National Pickling cucumber plants by cucumber anthracnose
[10] = test system: Erysiphe graminis; experiment: Wheat powdery mildew infection, colonies per plant
Procedure: With wheat powdery mildew (E. graminis) 10-day-old seedlings were sprayed with solutions of DFMA or DFMO from 0.01 to 5.0 mM before and after inoculation of the plants with conidia. Inoculation occurred naturally in the greenhouse by distributing infected plants among the experimental plants for 24 hours. Infection was evaluated 10 days after inoculation by counting mildew colonies.

[11] = test system: bean plants (Phaseolus vulgaris cv Pinto); experiment: Effect of sprays on growth and appearance of bean plants; assay type: in vivo
Procedure: Unifoliolate leaves of 10-day-old bean seedlings were sprayed (400 ul per leaf) with DFMO or alpha-difluoromethylarginine (DFMA) at concentrations of 0.01-5 mM, before or after inoculation with uredospores of the bean rust, Uromyces phaseoli, Race 0. The inhibitor solutions were prepared in 0.01% Tween 20, with the pH adjusted to 7.0. Control plants without inhibitor were sprayed similarly and were allowed to dry before inoculation with the pathogen. After inoculation with rust uredospores (25 mg/100 ml of 0.01% Tween 20) all plants were placed in dew chambers (100% relative humidity) for 16 hours at 19° C. in total darkness. After exposures to inhibitors and uredospores, all plants were returned to the greenhouse and arranged randomly. Disease severity was evaluated 7 days after inoculation by counting foliar lesions. In control plants and those treated with low concentrations of DFMO, uredospores were collected randomly from each treatment to determine percent germination and pathogenicity. For determination of germination, spores were dusted onto Petri plates containing 10 mM 2-(N-morpholino)ethanesulfonic acid (Mes) at pH 7.0, 3 mM CaCl2, 2 mM MgSO4, and 1% purified agar, and incubated for 3 hr at 19° C. in the light.

[12] = postinoculation exposure, inhibitor 0.01 mM
[13] = postinoculation exposure, inhibitor 0.025 mM
[14] = postinoculation exposure, inhibitor 0.05 mM
[15] = postinoculation exposure, inhibitor 0.075 mM
[16] = postinoculation exposure, inhibitor 0.10 mM
[17] = postinoculation exposure, inhibitor 0.25 mM
[18] = postinoculation exposure, inhibitor 0.50 mM
[19] = postinoculation exposure, inhibitor 1.0 mM
[20] = postinoculation exposure, inhibitor 5.0 mM
[21] = preinoculation exposure, inhibitor 0.01 mM
[22] = preinoculation exposure, inhibitor 0.025 mM
[23] = preinoculation exposure, inhibitor 0.05 mM
[24] = preinoculation exposure, inhibitor 0.075 mM
[25] = preinoculation exposure, inhibitor 0.10 mM
[26] = preinoculation exposure, inhibitor 0.25 mM
[27] = preinoculation exposure, inhibitor 0.50 mM
[28] = preinoculation exposure, inhibitor 1.0 mM
[29] = preinoculation exposure, inhibitor 5.0 mM

NCCCC(N)(C(=O)O)C(F)F (racemic) [DFMO, DL-alpha-difluorimethylornithine]
% control ([1]; post-inoculation, 0.01 mM): 36%
Uredia/plant ([1]; post-inoculation, 0.01 mM): 134 Uredia/plant
% control ([1]; post-inoculation, 0.025 mM): 44%
Uredia/plant ([1]; post-inoculation, 0.025 mM): 117 Uredia/plant
% control ([1]; post-inoculation, 0.065 mM): 55%
Uredia/plant ([1]; post-inoculation, 0.065 mM): 94 Uredia/plant
% control ([1]; post-inoculation, 0.10 mM): 76%
Uredia/plant ([1]; post-inoculation, 0.10 mM): 51 Uredia/plant
% control ([1]; post-inoculation, 0.13 mM): 77%
Uredia/plant ([1]; post-inoculation, 0.13 mM): 49 Uredia/plant
% control ([1]; post-inoculation, 0.16 mM): 81%
Uredia/plant ([1]; post-inoculation, 0.16 mM): 40 Uredia/plant
% control ([1]; post-inoculation, 0.20 mM): 82%
Uredia/plant ([1]; post-inoculation, 0.20 mM): 37 Uredia/plant
% control ([1]; post-inoculation, 1.00 mM): 92%
Uredia/plant ([1]; post-inoculation, 1.00 mM): 17 Uredia/plant
ED50, wheat stem rust ([1]; pre-inoculation treatment): 560 µM
% control ([1]; pre-inoculation, 0.01 mM): 8%
Uredia/plant ([1]; pre-inoculation, 0.01 mM): 194 Uredia/plant
% control ([1]; pre-inoculation, 0.025 mM): 17%
Uredia/plant ([1]; pre-inoculation, 0.025 mM): 175 Uredia/plant
% control ([1]; pre-inoculation, 0.065 mM): 13%
Uredia/plant ([1]; pre-inoculation, 0.065 mM): 182 Uredia/plant
% control ([1]; pre-inoculation, 0.10 mM): 13%
Uredia/plant ([1]; pre-inoculation, 0.10 mM): 183 Uredia/plant
% control ([1]; pre-inoculation, 0.13 mM): 19%
Uredia/plant ([1]; pre-inoculation, 0.13 mM): 170 Uredia/plant
% control ([1]; pre-inoculation, 0.16 mM): 32%
Uredia/plant ([1]; pre-inoculation, 0.16 mM): 143 Uredia/plant
% control ([1]; pre-inoculation, 0.20 mM): 32%
Uredia/plant ([1]; pre-inoculation, 0.20 mM): 143 Uredia/plant
% control ([1]; pre-inoculation, 1.00 mM): 57%
Uredia/plant ([1]; pre-inoculation, 1.00 mM): 91 Uredia/plant
symptoms of Verticillium wilt compared to controls ([2]; 2.5 mM and 10 mM, 24 hours after inoculation): suppressed symptoms
most effective time for application ([2]; 5 mM DFMO, symptoms 21 days after inoculation): 24-48 hours post-inoculation
delay of onset of symptom expression ([2]; increasing concentration from 2.5 to 10 mM): up to 7 days
wilt symptoms ([2]; spores applied to the soil, DFMO applied to the leaves): greatly suppressed
Put and Spd titers ([3]; highest concentration of DFMO): increased
PA levels in treated leaves ([3]; sprays 0.01, 0.1 and 1.0 mM, 1, 3 and 8 days later): no significant reductions
Percent control ([4]; 0.01 mM): 50.7% and 50%
Percent control ([4]; 0.025 mM): 63.2%
Percent control ([4]; 0.065 mM): 65.5%
Percent control ([4]; 0.10 mM): 71.0%
Percent control ([4]; 0.13 mM): 67.9%
Percent control ([4]; 0.16 mM): 77.3%
protection against infection ([5]; 400 ul of 0.25 mM applied to a single leaf): complete protection
disease symptoms / protection against bean rust ([5]; DFMO at 0.5 mM or higher, pre- and postinoculation, 400 ul per leaf): No disease symptoms could be detected; also recorded: complete protection
germination or pathogenicity of uredospores collected from treated plants ([5]; plants treated with low concentrations): no decrease in germination or pathogenicity
delay of uredial appearance ([5]; postinoculation exposure, lower concentrations, dose-dependent): 2 to 6 days
Lesions per cm^2 [5, 12]: 40 ± 5 per cm^2
Lesions per leaf [5, 12]: 1888 ± 249 per leaf
Lesions per cm^2 [5, 13]: 28 ± 2 per cm^2
Lesions per leaf [5, 13]: 1526 ± 160 per leaf
Lesions per cm^2 [5, 14]: 17 ± 2 per cm^2
Lesions per leaf [5, 14]: 1026 ± 131 per leaf
Lesions per cm^2 [5, 15]: 12 ± 1 per cm^2
Lesions per leaf [5, 15]: 669 ± 96 per leaf
Lesions per cm^2 [5, 16]: 5 ± 1 per cm^2
Lesions per leaf [5, 16]: 221 ± 39 per leaf
Lesions per cm^2 [5, 17]: 2 ± 1 per cm^2
Lesions per leaf [5, 17]: 73 ± 4 per leaf
Lesions per cm^2 [5, 18]: 0 per cm^2
Lesions per leaf [5, 18]: 0 per leaf
Lesions per cm^2 [5, 19]: 0 per cm^2
Lesions per leaf [5, 19]: 0 per leaf
Lesions per cm^2 [5, 20]: 0 per cm^2
Lesions per leaf [5, 20]: 0 per leaf
Lesions per cm^2 [5, 21]: 47 ± 6 per cm^2
Lesions per leaf [5, 21]: 2677 ± 397 per leaf
Lesions per cm^2 [5, 22]: 34 ± 1 per cm^2
Lesions per leaf [5, 22]: 2071 ± 103 per leaf
Lesions per cm^2 [5, 23]: 29 ± 4 per cm^2
Lesions per leaf [5, 23]: 1712 ± 375 per leaf
Lesions per cm^2 [5, 24]: 19 ± 2 per cm^2
Lesions per leaf [5, 24]: 1177 ± 159 per leaf
Lesions per cm^2 [5, 25]: 14 ± 2 per cm^2
Lesions per leaf [5, 25]: 659 ± 104 per leaf
Lesions per cm^2 [5, 26]: 2 ± 1 per cm^2
Lesions per leaf [5, 26]: 85 ± 20 per leaf
Lesions per cm^2 [5, 27]: 0 per cm^2
Lesions per leaf [5, 27]: 0 per leaf
Lesions per cm^2 [5, 28]: 0 per cm^2
Lesions per leaf [5, 28]: 0 per leaf
Lesions per cm^2 [5, 29]: 0 per cm^2
Lesions per leaf [5, 29]: 0 per leaf
Differentiation % ([6]; 0.1 mM): 46%
Germination % ([6]; 0.1 mM): 32%
Differentiation % ([6]; 0.5 mM): 35%
Germination % ([6]; 0.5 mM): 32%
Differentiation % ([6]; 1.0 mM): 30%
Germination % ([6]; 1.0 mM): 32%
Differentiation % ([6]; 5.0 mM): 19%
Germination % ([6]; 5.0 mM): 22%
inhibition at 100 µM ([6]; 0.1 mM, read-out: Differentiation % Inhibiton): 22%
inhibition at 100 µM ([6]; 0.1 mM, read-out: Germination % Inhibition): 24%
inhibition at 500 µM ([6]; 0.5 mM, read-out: Differentiation % Inhibiton): 41%
inhibition at 500 µM ([6]; 0.5 mM, read-out: Germination % Inhibition): 24%
inhibition at 1000 µM ([6]; 1.0 mM, read-out: Differentiation % Inhibiton): 49%
inhibition at 1000 µM ([6]; 1.0 mM, read-out: Germination % Inhibition): 24%
inhibition at 5000 µM ([6]; 5.0 mM, read-out: Differentiation % Inhibiton): 68%
inhibition at 5000 µM ([6]; 5.0 mM, read-out: Germination % Inhibition): 48%
% control ([7]; 0.01 mM): 45% and 60%
Uredia/plant ([7]; 0.01 mM): 44 Uredia/plant and 32 Uredia/plant
% control ([7]; 0.025 mM): 51% and 66%
Uredia/plant ([7]; 0.025 mM): 39 Uredia/plant and 27 Uredia/plant
% control ([7]; 0.13 mM): 55% and 90%
% control ([7]; 0.16 mM): 52% and 92%
% control ([7]; 0.20 mM): 65% and 95%
% control ([7]; 1.00 mM): 72% and 100%
% control ([7]; in vivo): 52% and 82%
minimal effective concentration ([8]; 192 h, 8 days, read-out: concentration reducing radial (mycelial) growth): ≥ 5 µM
minimal effective concentration ([8]; read-out: concentration inhibiting pigment synthesis): ≥ 500 µM
effect of 1 mM putrescine on DFMO-induced growth inhibition ([8]; putrescine added to culture medium): reversed
Lesions per plant ([9]; 1.0 mM): 69 per plant
Percent control ([9]; 1.0 mM): 14%
Lesions per plant ([9]; 5.0 mM): 69 per plant
Percent control ([9]; 5.0 mM): 14%
Lesions per plant ([9]; 10.0 mM): 70 per plant
Percent control ([9]; 10.0 mM): 14%
% control ([10]; post-inoculation, 0.01 mM): 19%
Colonies/plant ([10]; post-inoculation, 0.01 mM): 30 Colonies/plant
% control ([10]; post-inoculation, 0.025 mM): 30%
Colonies/plant ([10]; post-inoculation, 0.025 mM): 26 Colonies/plant
% control ([10]; post-inoculation, 0.065 mM): 46%
Colonies/plant ([10]; post-inoculation, 0.065 mM): 20 Colonies/plant
% control ([10]; post-inoculation, 0.10 mM): 68%
Colonies/plant ([10]; post-inoculation, 0.10 mM): 12 Colonies/plant
% control ([10]; post-inoculation, 0.20 mM): 68%
Colonies/plant ([10]; post-inoculation, 0.20 mM): 12 Colonies/plant
% control ([10]; post-inoculation, 1.00 mM): 76%
Colonies/plant ([10]; post-inoculation, 1.00 mM): 9 Colonies/plant
% control ([10]; post-inoculation, 5.00 mM): 89%
Colonies/plant ([10]; post-inoculation, 5.00 mM): 4 Colonies/plant
% control ([10]; pre-inoculation, 0.01 mM): 41%
Colonies/plant ([10]; pre-inoculation, 0.01 mM): 22 Colonies/plant
% control ([10]; pre-inoculation, 0.025 mM): 35%
Colonies/plant ([10]; pre-inoculation, 0.025 mM): 24 Colonies/plant
% control ([10]; pre-inoculation, 0.065 mM): 46%
Colonies/plant ([10]; pre-inoculation, 0.065 mM): 20 Colonies/plant
% control ([10]; pre-inoculation, 0.10 mM): 51%
Colonies/plant ([10]; pre-inoculation, 0.10 mM): 18 Colonies/plant
% control ([10]; pre-inoculation, 0.20 mM): 46%
Colonies/plant ([10]; pre-inoculation, 0.20 mM): 20 Colonies/plant
% control ([10]; pre-inoculation, 1.00 mM): 66%
Colonies/plant ([10]; pre-inoculation, 1.00 mM): 13 Colonies/plant
% control ([10]; pre-inoculation, 5.00 mM): 95%
Colonies/plant ([10]; pre-inoculation, 5.00 mM): 2 Colonies/plant
appearance, growth and development of sprayed bean plants ([11]; all concentrations, as high as 5 mM): looked healthy, exhibiting no malformation or reduction in growth rate; also recorded: no apparent effect on growth and development of the plant
growth of the bean plants ([11]; sprays 0.01, 0.1 and 1.0 mM): no effect
